ChEMBL document CHEMBL3885861, “Open TG-GATES”

Species on record: Rattus norvegicus
Assay: Open TG-GATES - Regimen: Single
Type: toxicity, organism-based, Sprague-Dawley
Design: regimen Single, gender Male, age 6 weeks
Details: in vivo, po, 2 mg/kg, route gavage, dose level Middle; for APTT / Bas / Eos / Fbg / Hb / Ht / Lym / MCH / MCHC / MCV / Mono / Neu / PT / Plat / RBC / Ret / WBC: tissue Blood; for KIDNEY_L / KIDNEY_R / KIDNEY_TOTAL: tissue Kidney; for LIVER: tissue Liver; for A/G / ALP / ALT / AST / BUN / CRE / Ca / Cl / DBIL / GLC / IP / K / LDH / Na / PL / RALB / TBIL / TC / TG / TP / gamma-GTP: tissue Plasma

SMILES: O=NN(CCCl)C(=O)NC1CCCCC1 [LOMUSTINE]
- TERMINAL_BW (3 h): 208.7 g
- APTT (3 h): 16.4 s
- Bas (3 h): 0%
- Eos (3 h): 0.4%
- Fbg (3 h): 227.8 mg/dL
- Hb (3 h): 12.8 g/dL
- Ht (3 h): 38.3%
- Lym (3 h): 81.8%
- MCH (3 h): 22.5 pg
- MCHC (3 h): 33.4%
- MCV (3 h): 67.4 fL
- Mono (3 h): 7.2%
- Neu (3 h): 10.2%
- PT (3 h): 11.6 s
- Plat (3 h): 102.8 x10_4/uL
- RBC (3 h): 568.2 x10_4/ul
- Ret (3 h): 9.5%
- WBC (3 h): 127.7 x10_2/uL
- KIDNEY_L (3 h): 0.9 g
- KIDNEY_R (3 h): 1 g
- KIDNEY_TOTAL (3 h): 1.9 g
- LIVER (3 h): 10 g
- A/G (3 h): 1.8
- ALP (3 h): 890.2 IU/L
- ALT (3 h): 35.6 IU/L
- AST (3 h): 70.8 IU/L
- BUN (3 h): 14.2 mg/dL
- CRE (3 h): 0.5 mg/dL
- Ca (3 h): 11.4 mg/dL
- Cl (3 h): 104.8 meq/L
- DBIL (3 h): 0.052 mg/dL
- GLC (3 h): 187.6 mg/dL
- IP (3 h): 9.9 mg/dL
- K (3 h): 4.6 meq/L
- LDH (3 h): 104.6 IU/L
- Na (3 h): 139.4 meq/L
- PL (3 h): 127.4 mg/dL
- RALB (3 h): 3.5 g/dL
- TBIL (3 h): 0.3 mg/dL
- TC (3 h): 75.8 mg/dL
- TG (3 h): 41.4 mg/dL
- TP (3 h): 5.5 g/dL
- gamma-GTP (3 h): 1.4 IU/L
- TERMINAL_BW (6 h): 201.7 g
- APTT (6 h): 16.8 s
- Bas (6 h): 0%
- Eos (6 h): 0.2%
- Fbg (6 h): 217.4 mg/dL
- Hb (6 h): 13.5 g/dL
- Ht (6 h): 40.4%
- Lym (6 h): 84.2%
- MCH (6 h): 21.9 pg
- MCHC (6 h): 33.4%
- MCV (6 h): 65.6 fL
- Mono (6 h): 4.2%
- Neu (6 h): 11.4%
- PT (6 h): 12.2 s
- Plat (6 h): 103.8 x10_4/uL
- RBC (6 h): 616.2 x10_4/ul
- Ret (6 h): 9.4%
- WBC (6 h): 137.8 x10_2/uL
- KIDNEY_L (6 h): 1 g
- KIDNEY_R (6 h): 1 g
- KIDNEY_TOTAL (6 h): 1.9 g
- LIVER (6 h): 8.7 g
- A/G (6 h): 1.9
- ALP (6 h): 941.6 IU/L
- ALT (6 h): 33.6 IU/L
- AST (6 h): 66.8 IU/L
- BUN (6 h): 11.6 mg/dL
- CRE (6 h): 0.5 mg/dL
- Ca (6 h): 11 mg/dL
- Cl (6 h): 104.2 meq/L
- DBIL (6 h): 0.02 mg/dL
- GLC (6 h): 187.6 mg/dL
- IP (6 h): 10.8 mg/dL
- K (6 h): 5 meq/L
- LDH (6 h): 80.8 IU/L
- Na (6 h): 141.2 meq/L
- PL (6 h): 140 mg/dL
- RALB (6 h): 3.5 g/dL
- TBIL (6 h): 0.3 mg/dL
- TC (6 h): 79.6 mg/dL
- TG (6 h): 49.2 mg/dL
- TP (6 h): 5.5 g/dL
- gamma-GTP (6 h): 1.8 IU/L
- TERMINAL_BW (9 h): 198 g
- APTT (9 h): 17 s
- Bas (9 h): 0%
- Eos (9 h): 0.8%
- Fbg (9 h): 226 mg/dL
- Hb (9 h): 13.1 g/dL
- Ht (9 h): 40.1%
- Lym (9 h): 78.6%
- MCH (9 h): 21.4 pg
- MCHC (9 h): 32.7%
- MCV (9 h): 65.6 fL
- Mono (9 h): 6.2%
- Neu (9 h): 14.6%
- PT (9 h): 12.2 s
- Plat (9 h): 103.3 x10_4/uL
- RBC (9 h): 611.2 x10_4/ul
- Ret (9 h): 8.8%
- WBC (9 h): 71.6 x10_2/uL
- KIDNEY_L (9 h): 0.9 g
- KIDNEY_R (9 h): 0.9 g
- KIDNEY_TOTAL (9 h): 1.8 g
- LIVER (9 h): 8.4 g
- A/G (9 h): 2.3
- ALP (9 h): 731 IU/L
- ALT (9 h): 28.6 IU/L
- AST (9 h): 67.6 IU/L
- BUN (9 h): 11 mg/dL
- CRE (9 h): 0.5 mg/dL
- Ca (9 h): 10.7 mg/dL
- Cl (9 h): 105.4 meq/L
- DBIL (9 h): 0.024 mg/dL
- GLC (9 h): 191 mg/dL
- IP (9 h): 10.8 mg/dL
- K (9 h): 5 meq/L
- LDH (9 h): 93.8 IU/L
- Na (9 h): 139.4 meq/L
- PL (9 h): 136.2 mg/dL
- RALB (9 h): 3.9 g/dL
- TBIL (9 h): 0.3 mg/dL
- TC (9 h): 81.6 mg/dL
- TG (9 h): 30.8 mg/dL
- TP (9 h): 5.5 g/dL
- gamma-GTP (9 h): 1.8 IU/L
- TERMINAL_BW (24 h): 218.8 g
- APTT (24 h): 16.9 s
- Bas (24 h): 0%
- Eos (24 h): 0.4%
- Fbg (24 h): 207.4 mg/dL
- Hb (24 h): 12.8 g/dL
- Ht (24 h): 38.5%
- Lym (24 h): 80.2%
- MCH (24 h): 22.3 pg
- MCHC (24 h): 33.3%
- MCV (24 h): 67.1 fL
- Mono (24 h): 7%
- Neu (24 h): 12.6%
- PT (24 h): 12.1 s
- Plat (24 h): 96.4 x10_4/uL
- RBC (24 h): 574.2 x10_4/ul
- Ret (24 h): 9.1%
- WBC (24 h): 121.6 x10_2/uL
- KIDNEY_L (24 h): 1 g
- KIDNEY_R (24 h): 1 g
- KIDNEY_TOTAL (24 h): 2 g
- LIVER (24 h): 11.1 g
- A/G (24 h): 2.3
- ALP (24 h): 839.8 IU/L
- ALT (24 h): 38.8 IU/L
- AST (24 h): 62.4 IU/L
- BUN (24 h): 16.8 mg/dL
- CRE (24 h): 0.5 mg/dL
- Ca (24 h): 11.3 mg/dL
- Cl (24 h): 104.4 meq/L
- DBIL (24 h): 0.038 mg/dL
- GLC (24 h): 195.8 mg/dL
- IP (24 h): 8.7 mg/dL
- K (24 h): 4.8 meq/L
- LDH (24 h): 87.4 IU/L
- Na (24 h): 137.8 meq/L
- PL (24 h): 157.2 mg/dL
- RALB (24 h): 4 g/dL
- TBIL (24 h): 0.3 mg/dL
- TC (24 h): 86.8 mg/dL
- TG (24 h): 80.6 mg/dL
- TP (24 h): 5.7 g/dL
- gamma-GTP (24 h): 1.4 IU/L
